The test relates to M. tuberculosis H37Rv growth inhibition. Put plainly: M. tuberculosis H37Rv growth inhibitors, H37Rv strain (AID 1626). Particulars: for IC90: measured here: IC90 against H37Rv; for CC50: measured here: Vero cell cytotoxicity.

As usually defined, the IC90 is the concentration needed for an effect of 90%. Higher therefore signals a need for much substance. Usually IC50 stands for the concentration at which inhibition is half-maximal. By CC50 is commonly meant the concentration that lowers cell viability or growth by half. A high value points to lower toxicity to the cells.

In the case of `Cn1cc(CN2CCN(c3ccc(Cl)cn3)CC2)c(-c2ccccc2F)n1`, the IC90 is > 100 µM.
For `O=C(CCCC(=O)OCC(=O)c1cccs1)Nc1ccc(Oc2ccccc2)cc1`, the IC50 is 17.4 µM and the IC90 is > 100 µM.
Consider `CCOC(=O)c1ccccc1-n1c(C)cc(C2N=C(N)Nc3nc4ccccc4n32)c1C` (stereo not drawn), for which the IC50 was 11.5 µM and the IC90 is 13.7 µM.
On to `CCOC(=O)CSc1ncc(-c2cccc(Cl)c2)cn1`, for which the IC50 was 1.35 µM and the IC90 was found to be 3.11 µM.
The like results for `CC1CCc2nc(NC(=O)CN3CCN(c4ccccc4)CC3)sc2C1` (stereo not drawn) were, in that order, 24.6 µM and > 100 µM.
The like results for `CCOc1ccc(NC(=O)CCN2CCN(c3ccccc3F)CC2)cc1` were, in that order, 36.3 µM and > 100 µM.
As to `CCOc1ccc2nc(NC(=O)CSc3nc(SC)ns3)sc2c1`, the IC50 was 2.95 µM, the IC90 is > 100 µM and the CC50 was > 40 µM.
As to `Cc1nc2ccc(NC(=O)COc3cccc(F)c3)cc2s1`, the IC50 was 20.6 µM and the IC90 is > 100 µM.
Take `O=C(COC(=O)c1ccccc1Br)Nc1ccccc1F`: the IC90 was > 100 µM.
As to `Oc1ccccc1N1CCN(c2ncnc3sc(-c4ccccc4)cc23)CC1`, the IC50 is 9.21 µM, the IC90 was 13 µM and the CC50 is > 40 µM.
In the case of `CCOC(=O)c1ccc(NC(=O)NS(=O)(=O)c2ccc(C)cc2)cc1`, the IC50 is 7.99 µM and the IC90 was > 100 µM.
Regarding `COc1ccc(Nc2nc(-c3ccc4c(c3)NC(=O)CO4)cs2)cc1`, the IC50 was 10 µM, the IC90 is > 100 µM and the CC50 is > 40 µM.
The like results for `CSc1ccc(N=Nc2c(C)[nH]n(C)c2=O)cc1` were, in that order, 7.43 µM, > 100 µM and > 40 µM.
The like results for `O=C(Nc1ccccc1F)C(=Cc1sc(N2CCOCC2)nc1-c1ccccc1)C(=O)Nc1ccccc1F` were, in that order, 51 µM, > 100 µM and > 40 µM.
The matching figures for `Cc1ccccc1N=Nc1ccc(O)c2ncccc12`: 21.1 µM, > 100 µM and 0.933 µM.
Consider `COc1ccccc1N1CCN(Cc2nc(N)nc(Nc3ccc(C)c(Cl)c3)n2)CC1`, for which the IC50 was 8.35 µM, the IC90 is 18.7 µM and the CC50 was > 40 µM.
The like results for `CCn1ccnc1CN(C)Cc1cn(-c2cccc(C)c2)nc1-c1cccc(F)c1` were, in that order, 2.58 µM, 4.19 µM and > 40 µM.
The like results for `O=C(Nc1nnc(-c2cccs2)o1)c1cccc(C(F)(F)F)c1` were, in that order, < 0.391 µM, 11.9 µM and 20.6 µM.
Turning to `CCN(Cc1ccccc1)c1ccc(/C=N/N=C(N)N)cc1`, the IC50 is 5.5 µM, the IC90 stood at 6.21 µM and the CC50 was determined as 8.71 µM.
As to `CCN1CCN(c2cc(-c3ccccc3)nc3cc(-c4cccc(F)c4)nn23)CC1`, the IC50 is 8.07 µM, the IC90 was 12.9 µM and the CC50 was found to be 39.2 µM.
Consider `CCCOc1ccc(NCC(=O)Nc2ccc(C)cc2C)cc1`, for which the IC50 was < 0.391 µM and the IC90 is > 100 µM.
For the compound `N=C1S/C(=C\c2ccc(-c3cccc(Cl)c3)o2)C(=O)N1c1nccs1`, the IC50 was < 0.195 µM, the IC90 turned out to be 13.9 µM and the CC50 was 5.77 µM.
As for `Cc1ccc(C(=O)/C=C\Nc2ccc(C)c(C)c2)cc1`, the IC90 was > 100 µM.
For `C=C1C(=O)O[C@@H]2C[C@@H](C)[C@@H]3C=CC(=O)[C@@]3(C)[C@@H](O)[C@H]12`, the IC50 was 3.84 µM, the IC90 worked out at 6.64 µM and the CC50 was 1.84 µM.
Consider `CCN(CC)c1ccc(N=Cc2c(C)[nH]c3ccccc23)cc1`, for which the IC50 is 22.1 µM, the IC90 was 35.1 µM and the CC50 was > 40 µM.
The like results for `COc1ccccc1-c1nc(-c2ccccc2)nc(N2CCN(C)CC2)c1C#N` were, in that order, 16.5 µM, 22 µM and > 40 µM.
`Cc1[nH]c2ccccc2c1C(=O)COC(=O)c1ccc([N+](=O)[O-])s1` yielded a CC50 of 31.8 µM.
Turning to `O=C(CSc1nc2ccc(Nc3nc(N4CCOCC4)nc(N4CCOCC4)n3)cc2s1)NCc1ccco1`, the IC50 is 36.5 µM, the IC90 was > 100 µM and the CC50 was > 40 µM.
The like results for `Cc1nc([N+](=O)[O-])c(Br)n1CC(=O)c1ccc(Cl)cc1` were, in that order, 16.8 µM, 23.2 µM and 30.6 µM.
As for `N#CCC1c2ccccc2CCN1C(=O)Nc1ccc(C(F)(F)F)cc1` (stereo not drawn), the 50% inhibitory concentration (IC50) is 5.9 µM and the IC90 was > 100 µM.
`COc1cccc(C(=O)/C=C/c2ccc(OCC#N)c(OC)c2)c1`: the IC50 is 19.8 µM, the IC90 was > 100 µM and the CC50 worked out at 12.4 µM.
The like results for `c1csc(Cc2nn3c(-c4n[nH]c5c4CCC5)nnc3s2)c1` were, in that order, 0.412 µM, 11 µM and > 40 µM.
Turning to `COc1ccc(C2(CNC(=O)c3cc([N+](=O)[O-])cc([N+](=O)[O-])c3)CCCC2)cc1OC`, the IC50 is < 0.195 µM and the 90% effect concentration (IC90) stood at 0.686 µM.
Consider `COc1ccc(C(C(=O)NC2CCCCC2)N(C(=O)c2sc(C)nc2C)c2ccccc2C)cc1` (stereo not drawn), for which the IC50 was 6.96 µM, the IC90 was found to be 11.4 µM and the CC50 is > 40 µM.
With `CCc1ccc(Nc2c([N+](=O)[O-])c(=O)oc3ccccc23)cc1`, the IC90 is > 100 µM and the CC50 is > 40 µM.
Regarding `CCOc1ccc2nc(SCC(=O)Nc3ccc4c(c3)OCO4)sc2c1`, the half-inhibitory concentration (IC50) is 25 µM and the IC90 is > 100 µM.
With `NC1=NC[C@H](Cc2ccccc2)N1CCCCC1CCCCC1`, the IC50 was 10 µM, the IC90 is 13.6 µM and the CC50 is > 40 µM.
The like results for `CC(C)(C)c1ccccc1OCCCCCn1ccnc1` were, in that order, 8.29 µM, 10.9 µM and > 40 µM.
The like results for `CCCc1nnc(NC(=O)c2c(O)c3cccc4c3n(c2=O)CCC4)s1` were, in that order, < 0.391 µM, < 0.391 µM and 25.6 µM.
For `CCCCCOC(=O)c1ccc(OC(=O)c2cncc(Br)c2)cc1`, the IC50 is 11.6 µM and the IC90 was > 100 µM.
Regarding `CN(C)CCCn1c(=O)n(CCc2ccccc2)c(=O)c2c3c(sc21)CCCCC3`, the IC50 was 11.6 µM, the IC90 was 12.9 µM and the CC50 turned out to be 18.1 µM.
The like results for `O=[N+]([O-])c1cc(S(=O)(=O)Nc2ccccc2)ccc1N1CCN(c2ccccc2)CC1` were, in that order, 14.5 µM, 25.5 µM and 28.2 µM.
In the case of `Nc1ccc2oc(-c3cc(Br)ccc3Cl)nc2c1`, the IC50 was 18.6 µM and the IC90 is > 100 µM.
On to `CCCCC(=O)Nc1ccc2c(c1)oc1ccccc12`, for which the IC90 is > 100 µM.
With `C/C=C/c1ccc(OCC(=O)OCc2csc(Nc3ccc(C)cc3)n2)c(OC)c1`, the concentration for half-maximal inhibition (IC50) was 3.83 µM and the IC90 was found to be 8.62 µM.
The like results for `CCCCNC(=O)COC(=O)c1cc(F)c(F)cc1Cl` were, in that order, 6.16 µM and > 100 µM.
On to `CC(C)(C)c1ccc(OCCCC(=O)NC2=NCCS2)cc1`, for which the IC50 is 11.8 µM, the IC90 is > 100 µM and the CC50 is > 40 µM.
For `Cc1ccccc1-n1nnc2c(=O)oc3ccccc3c21`, the IC50 was 4.48 µM and the IC90 was > 100 µM.
In the case of `O=[N+]([O-])c1ccc(Sc2cccc3cccnc23)c([N+](=O)[O-])c1`, the concentration for half-maximal inhibition (IC50) is 32.9 µM, the IC90 was > 100 µM and the CC50 amounted to 4.55 µM.
With `Cc1c(CNC(=O)c2cnn3c2NC(c2ccc(Br)cc2)CC3C(F)(F)F)cnn1C` (stereo not drawn), the IC50 is 4.09 µM and the IC90 is 6.49 µM.
For `N#CC1=C(S)N(c2ccccc2)C(c2ccc(-c3ccc(Cl)c(Cl)c3)o2)NC1=O` (stereo not drawn), the IC50 is 41 µM and the IC90 is > 100 µM.
The like results for `COc1ccc(-c2cc(C(=O)Nc3nc4ccccc4s3)c3ccccc3n2)cc1OC` were, in that order, 4.02 µM and > 100 µM.
In the case of `N=C1S/C(=C\c2ccco2)C(=O)N1c1nccs1`, the IC50 was < 0.195 µM, the IC90 was < 0.195 µM and the CC50 was 22.5 µM.
In the case of `O=C(Nc1nc(-c2ccccn2)cs1)c1cc(Cl)ccc1[N+](=O)[O-]`, the IC50 is 0.87 µM, the IC90 amounted to 2.24 µM and the CC50 was 2.24 µM.
`CC1C(c2ccccc2)N(C)C(c2ccccc2)CC1(O)c1ccccc1` (stereo not drawn): the IC50 is 5.85 µM, the IC90 worked out at 6.61 µM and the CC50 was > 40 µM.
The matching figures for `Cn1nc(-c2ccc(Cl)cc2)c2cc(C(=O)N3CCN(c4ccccn4)CC3)sc21`: 2.49 µM, 4.36 µM and > 40 µM.
On to `Cc1ccc(C(=O)NCCSC(C)(C)C)cc1[N+](=O)[O-]`, for which the IC50 was 2.96 µM and the IC90 stood at 3.32 µM.
For the compound `Cc1ccc(N2CCN(C(=O)Nc3cccc([N+](=O)[O-])c3)CC2C)cc1` (stereo not drawn), the IC50 was 27.1 µM, the IC90 was > 100 µM and the CC50 is > 40 µM.
For the compound `CCN(CC)c1ccc(/C=C(/C#N)c2nc3ccccc3[nH]2)c(OC(C)C)c1`, the IC50 is 0.488 µM, the IC90 turned out to be 0.936 µM and the CC50 is > 40 µM.
`Cn1c(=O)[nH]c(=O)c2c1nc(N1CCCCC1)n2CCCSc1nc2ccccc2s1`: the CC50 was > 40 µM.
For `Cc1ccc2cc(/C=C/C(=O)c3ccco3)c(Cl)nc2c1`, the IC50 is 19.3 µM, the IC90 was > 100 µM and the CC50 was > 40 µM.
As for `COC(=O)CC(=O)N1CCN(c2ccc(Cl)c(Cl)c2)CC1`, the IC50 is 11.9 µM and the IC90 came to 25.2 µM.
As for `O=C(Nc1ccc(-n2nncc2-c2ccco2)cc1)c1cc2ccccc2oc1=O`, the IC50 was 1.96 µM, the IC90 was determined as 6.68 µM and the CC50 stood at 19.7 µM.
For the compound `O=C(Nc1nccs1)c1ccccn1`, the IC50 was 6.09 µM, the IC90 was found to be 15.7 µM and the CC50 is > 40 µM.

Source of the values: PubChem BioAssay AID1626 (SRMLSC, 2009).
